Data from patent publication US4161598A, “1-Oxygenated-2,6-methano-3-benzazocines” (Sterling Drug Inc., priority 1977, dated 1979).
Like-named read-outs stand apart in the source and are kept apart here.

Key:
[1] = Ziering reference; all tests other than writhing; cited from earlier work
[2] = test system: ethylenediaminetetraacetic acid (EDTA); test: EDTA Antinociceptive Test; type: in vivo, guinea pig; conditions: Cavia porcellus, sc, 0.5 h; subcutaneous; reduces response score to 6 or less
Procedure: This is also a secondary evaluation of analgesic activity. The test animal is the guinea pig. A threshold intradermal dose of ethylenediaminetetraacetic acid (EDTA) which can reproducibly elicit a cumulative response score of 12-18 discrete episodes of jumping, rearing, running, vocalization and biting or scratching at the site of injection within 40 seconds after challenge is determined for each animal. Thirty minutes after the administration of saline or test compound to 6-7 animals per dose, each animal is again challenged with its own threshold dose of EDTA. An effective drug dose is considered to be one which reduces the response score to 6 or less.

acetylcholine = test: Anti-acetylcholine Writhing Test; type: in vivo, mice; conditions: Mus musculus, 20 min
Procedure: This response has also been called writhing. Animals are pretreated with test compounds (20 minutes for both subcutaneous and oral routes) and observed for two minutes immediately following the administration of acetylcholine. Mice not responding during the two-minute observation period are scored protected while those responding one or more times are scored not protected. Test compounds are screened at doses of 75 and 25 mg./kg. subcutaneously or 150 and 50 mg./kg. orally. […] ED50 values for active compounds are estimated by probit analysis of quantal scores for 4 or more dosage levels using 15 animals per dose. Vehicle-pretreated control animals are tested concurrently with each run of 15 experimental animals.

narcotics = test: Tail-flick Antagonist Test, narcotic not specified
[3] = test system: thermal stimulus applied to the tail; test: Tail-flick Agonist Test; type: in vivo, Rats; conditions: for ED50: Rattus norvegicus, sc, 0.5 h; for activity as agonist: tail-flick test, result in words
Procedure: Rats normally respond to a thermal stimulus applied to the tail by flicking their tails out from under the heat source. The intensity of the stimulus utilized is one which produces control response-times (CRT) of 2-4 seconds. Experimental response-times (ERT) are determined 30 minutes after subcutaneous injections and 60 minutes after oral medications. […] Therefore, the maximum possible increase (MPI) in response-time for any given animal is 20 minus the CRT. The average percent effect, or percent of the maximum possible increase (%MPI) obtained after any given test compound treatment is calculated by the formula [formula] […] ED50 or ED80 values of active compounds are obtained by the Miller and Tainter [Proc. Soc. Exptl.

[4] = test system: phenyl-p-quinone (phenylquinone); test: Anti-phenylquinone Writhing Test; type: in vivo, mice; conditions: Mus musculus
Procedure: This test is used to confirm the anti-acetylcholine writhing test. The ability of compounds to prevent phenyl-p-quinone (phenylquinone)-induced writhing in mice is determined in this test. […] Animals are pretreated with test compounds (15 minutes for subcutaneous route, 30 minutes for oral route) and observed for three one-minute intervals during the 5-12 minutes following administration. Mice responsing fewer than three times during the three one-minute observation periods are scored protected while those responding three or more times are scored not protected. Test compounds are screened using 10-14 animals per treatment, usually at doses of 75-100 mg./kg. subcutaneously or 150-200 mg./kg. orally. […] ED50 values for active compounds are estimated by probit analysis of quantal scores for 3-5 dosage levels using 14-30 animals per dose. Vehicle-pretreated control animals are tested daily.

bradykinin = test: Anti-bradykinin Test; type: in vivo, Rats; conditions: Rattus norvegicus, 2 h
Procedure: This is a secondary evaluation of analgesic activity. […] The threshold dose of bradykinin required for production of the response is determined for each animal, and is readministered at fixed intervals during a two-hour period following the subcutaneous or oral administration of test compounds. In the control response marked rotation of the head and flexion of the forepaw are each scored +2, for a total response score (TRS) of +4. For post-medication scoring any decrease in head rotation or paw flexion from control is each scored +1, rather than +2, while no movement of either the head or paw is each scored 0. Therefore, the TRS following any bradykinin challenge can vary from 0 to 4. Animals whose TRSs are 0-0, 0-+1 or +1-0 after any two consecutive bradykinin challenges during the two-hour post-medication period are scored protected. […] ED50 values of active compounds are estimated by probit analysis of quantal scores from 4 or more dosage levels using 5 animals per dose. In addition the average TRSs obtained at each test interval with each treatment are plotted to permit examination of time-effect relationships and to provide a rough expression of drug effect using graded data. A vehicle-pretreated control animal is tested daily. Synthetic bradykinin from Sandoz Pharmaceuticals is diluted with saline to the proper concentrations for determination of threshold doses for producing the response. All bradykinin injections are made at a constant volume of 0.2 ml. per rat.

analgesic activity = test: Analgesic activity, summary of the foregoing tests in experimental animals; type: in vivo; conditions: summary of the foregoing test results
Procedure: As stated above the compounds of Formula I are useful as analgesics and mostly also useful as narcotic antagonists as shown by tests in experimental animals. As presumptive tests of analgesia the anti-acetylcholine writhing, anti-phenylquinone writhing, anti-bradykinin and EDTA anti-nociceptive tests are carried out as follows: […]

morphine [5] = test: morphine antagonist activity in the rat; conditions: as the free base
meperidine [6] = test: meperidine antagonist activity in the rat; conditions: as the free base
morphine [7] = test: Tail-flick Antagonist Test against morphine; conditions: Rattus norvegicus
phenazocine = test: Tail-flick Antagonist Test against phenazocine; conditions: Rattus norvegicus
meperidine [8] = test: Tail-flick Antagonist Test against meperidine; conditions: Rattus norvegicus
[9] = po, oral, read-out: ED50 (95% Confidence Limits), Oral
[10] = sc, subcutaneous, base, read-out: Subcutaneous ED50 (95% Confidence Limits)
[11] = sc, subcutaneous, free base or acid addition salt, read-out: ED50 (95% Confidence Limits), Subcutaneous
[12] = summary of the foregoing test results
[13] = tail-flick antagonist test, result in words
[14] = po, 0.5 h, read-out: ED50 (95% Confidence Limits), Oral
[15] = sc, 0.25 h, read-out: ED50 (95% Confidence Limits), Subcutaneous
[16] = po, read-out: ED50 (95% Confidence Limits), Oral
[17] = sc, read-out: ED50 (95% Confidence Limits), Subcutaneous
[18] = sc, subcutaneous, form tested not given, read-out: Subcutaneous ED50 (95% Confidence Limits)
[19] = subcutaneously, unit inferred, read-out: agonist ED50
[20] = subcutaneous, 120 Mg./Kg. of Base

## COc1ccc2c(c1)[C@]1(C)CCN(C)[C@@H]([C@@H]1C)[C@@]2(O)c1ccccc1 (relative stereo) [Compound 13]
[1]
  activity in all other tests: inactive

## CC[C@]12CCN(CC3CC3)[C@H](C(=O)c3ccc(O)cc31)[C@@H]2C (relative stereo) [Example 29, 1,2,3,4,5,6-hexahydro-1-oxo-3-cyclopropylmethyl-8-hydroxy-6(eq)-ethyl-11(ax)-methyl-2,6-methano-3-benzazocine]
[2]
  minimal effective dose: 0.025 mg/kg
acetylcholine; [9]
  ED50: 7.6 mg/kg
acetylcholine; [10]
  ED50: 0.045 mg/kg
acetylcholine; [11]
  ED50: 0.074 mg/kg
narcotics; [12]
  narcotic antagonist activity: weak narcotic antagonist activity
narcotics; [13]
  narcotic antagonist activity: Inactive
[3]; read-out: Tail-flick Agonist Subcutaneous ED50
  ED50: 9 ± 10 mg/kg
[3]; subcutaneously, read-out: agonist ED50
  ED50: 9 ± 10 mg/kg
[3]; [12]
  narcotic activity: no narcotic activity
[3]
  activity as agonist: active
[4]; [14]
  ED50: 9.1 mg/kg
[4]; [15]
  ED50: 0.03 mg/kg
bradykinin; [16]
  ED50: 11 mg/kg
bradykinin; [17]
  ED50: 0.053 mg/kg
Analgesic activity
  analgesic activity: strong analgesic activity

## C[C@H]1[C@H]2C(=O)c3ccc(O)cc3[C@]1(C)CCN2CC1CCC1 (relative stereo) [Example 35B, 1,2,3,4,5,6-hexahydro-1-oxo-3-cyclobutylmethyl-8-hydroxy-6(eq),11(ax)-dimethyl-2,6-methano-3-benzazocine]
acetylcholine; [18]
  ED50: 3.9 mg/kg
narcotics; [13]
  narcotic antagonist activity: inactive
[3]; [19]
  ED50: 200 ± 49 mg/kg
[3]
  activity as agonist: weakly active

## COc1ccc2c(c1)[C@]1(C)CCN(C)[C@H](C2=O)[C@@H]1C (relative stereo) [Compound 12]
Morphine [5]
  activity against morphine: inactive
Meperidine [6]
  activity against meperidine: weakly active

## C[C@H]1[C@H]2C(=O)c3ccc(O)cc3[C@]1(C)CCN2CC1CC1 (relative stereo) [Example 1, 1,2,3,4,5,6-hexahydro-1-oxo-3-cyclopropylmethyl-8-hydroxy-6(eq),11(ax)-dimethyl-2,6-methano-3-benzazocine]
[2]
  minimal effective dose: 0.03 mg/kg
acetylcholine; [9]
  ED50: 12 mg/kg
acetylcholine; [10]
  ED50: 0.12 mg/kg
acetylcholine; [11]
  ED50: 0.16 mg/kg
acetylcholine; sc, subcutaneous, hydrochloride salt, read-out: Subcutaneous ED50 (95% Confidence Limits)
  ED50: 0.16 mg/kg
acetylcholine; sc, subcutaneous, methanesulfonate salt, read-out: Subcutaneous ED50 (95% Confidence Limits)
  ED50: 0.16 mg/kg
Morphine [7]; po, 20 min, read-out: AD50 (95% Confidence Limits) Against Morphine, Oral
  ED50: 91 mg/kg
Morphine [7]; sc, 10 min, read-out: AD50 (95% Confidence Limits) Against Morphine, Subcutaneous
  ED50: 4.9 mg/kg
Morphine [7]; sc, 10 min, read-out: Subcutaneous AD50 (95% Confidence Limits) Against Morphine
  ED50: 4 mg/kg
narcotics; [12]
  narcotic antagonist activity: weak narcotic antagonist activity
[3]; oral, 200 Mg./Kg. of Base
  Percent Inhibition of Response, Oral: 11.2%
  dead: 1/6
  righting reflex: partial loss
  salivation: slight
[3]; [20]
  Percent Inhibition of Response, Subcutaneous: 2.3%
  activity (observed side effect): decreased
  observed side effect: atoxia
[4]; [14]
  ED50: 15.2 mg/kg
[4]; [15]
  ED50: 0.16 mg/kg
bradykinin; [16]
  ED50: 10 mg/kg
bradykinin; [17]
  ED50: 0.069 mg/kg
phenazocine; po, 20 min, read-out: AD50 (95% Confidence Limits) Against Phenazocine, Oral
  ED50: 63 mg/kg
phenazocine; sc, 10 min, read-out: AD50 (95% Confidence Limits) Against Phenazocine, Subcutaneous
  ED50: 5 mg/kg
phenazocine; sc, 10 min, read-out: Subcutaneous AD50 (95% Confidence Limits) Against Phenazocine
  ED50: 4.3 mg/kg
Meperidine [8]; po, 20 min, read-out: AD50 (95% Confidence Limits) Against Meperidine, Oral
  ED50: 78 mg/kg
Meperidine [8]; sc, 10 min, read-out: AD50 (95% Confidence Limits) Against Meperidine, Subcutaneous
  ED50: 7.2 mg/kg
Meperidine [8]; sc, 10 min, read-out: Subcutaneous AD50 (95% Confidence Limits) Against Meperidine
  ED50: 2 mg/kg
Analgesic activity
  analgesic activity: strong analgesic activity

## C[C@H]1[C@H]2C(=O)c3ccc(O)cc3[C@]1(C)CCN2CCc1ccccc1 (relative stereo) [Example 34, 1,2,3,4,5,6-hexahydro-1-oxo-3-(2-phenylethyl)-8-hydroxy-6(eq),11(ax)-dimethyl-2,6-methano-3-benzazocine]
acetylcholine; [18]
  ED50: 4.2 mg/kg
narcotics; [13]
  narcotic antagonist activity: inactive
[3]; [19]
  ED50: 56 ± 9.1 mg/kg
[3]
  activity as agonist: weakly active

## COc1ccc2c(c1)[C@]1(C)CCN(C)[C@@H]([C@@H]1C)[C@]2(C)O (relative stereo) [Compound 14]
[1]
  activity in all other tests: inactive
